These results are taken from US10221139B2, “Inhibitors of histone demethylases” (Gilead Sciences, Inc., priority 2012, dated 2019).

Common to all, as to assay type: biochemical
In one experiment the target is T1, FBXL10 (KDM2B) (Homo sapiens, UniProt Q8NHM5).
T1 construct: 1-650; purchased BPS, Bioscience, US; host or cells: Bac (baculovirus)
T1 sequence (Q8NHM5 1-650): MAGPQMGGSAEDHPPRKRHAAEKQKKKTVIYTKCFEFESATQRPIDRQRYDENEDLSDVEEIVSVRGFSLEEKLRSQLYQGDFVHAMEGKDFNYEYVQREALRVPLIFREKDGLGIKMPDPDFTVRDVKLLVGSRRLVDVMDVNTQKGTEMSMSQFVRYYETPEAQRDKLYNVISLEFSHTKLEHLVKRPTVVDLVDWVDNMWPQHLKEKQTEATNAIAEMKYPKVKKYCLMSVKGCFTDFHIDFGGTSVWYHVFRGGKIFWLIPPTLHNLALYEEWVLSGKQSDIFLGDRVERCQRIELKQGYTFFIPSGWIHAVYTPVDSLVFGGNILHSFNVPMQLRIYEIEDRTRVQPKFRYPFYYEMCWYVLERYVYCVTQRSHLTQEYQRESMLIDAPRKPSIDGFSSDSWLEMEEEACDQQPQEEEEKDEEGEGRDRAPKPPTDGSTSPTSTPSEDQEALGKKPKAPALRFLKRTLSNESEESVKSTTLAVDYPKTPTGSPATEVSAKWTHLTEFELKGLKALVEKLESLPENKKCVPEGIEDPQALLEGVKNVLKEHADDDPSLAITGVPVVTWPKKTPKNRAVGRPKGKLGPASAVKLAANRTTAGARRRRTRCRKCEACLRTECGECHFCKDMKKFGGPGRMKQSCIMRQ
The experiment is described as follows: Histone lysine demethylase AlphaLISA assay, FBXL10. The following applies: substrate BH3K36M2. The essentials: (§1)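 IC50 values come from an AlphaLISA signal: acceptor beads incubated 60 min in the dark, then streptavidin donor beads, both at room temperature. Beforehand, enzyme and compound were preincubated 10 min and the substrate reaction ran at room temperature.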

The next experiment deals with T2, JMJD2A (KDM4A) (Homo sapiens, UniProt O75164).
T2 construct: 1-350; purchased BPS, Bioscience, US; host or cells: E. coli
T2 sequence (O75164 1-350): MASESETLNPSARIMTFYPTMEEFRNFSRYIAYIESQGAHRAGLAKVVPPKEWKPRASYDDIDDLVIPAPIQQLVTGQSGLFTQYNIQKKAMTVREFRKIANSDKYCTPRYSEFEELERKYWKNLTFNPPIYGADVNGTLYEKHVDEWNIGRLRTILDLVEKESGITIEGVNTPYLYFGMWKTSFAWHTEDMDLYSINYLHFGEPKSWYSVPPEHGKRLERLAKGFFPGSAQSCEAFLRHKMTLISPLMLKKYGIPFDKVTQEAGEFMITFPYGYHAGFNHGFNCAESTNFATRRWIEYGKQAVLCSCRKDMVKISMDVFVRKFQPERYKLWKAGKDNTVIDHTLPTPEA
The experiment is described as follows: Histone lysine demethylase AlphaLISA assay, JMJD2A. The following applies: substrate BK9M3. The protocol: (§2) Example 2: Histone Lysine Demethylase AlphaLISA Assays for IC50 Value Determination
(§3) Assays are performed analogously to the protocol described by Perkin Elmer (Roy et al. Perkin Elmer Technical Note: AlphaLISA #12, April 2011).
(§4) Enzymes are dissolved in enzyme buffer and incubated for 10 min before 5 μL is added to 5 μL 3% DMSO solutions of compounds in enzyme buffer. Incubated for another 10 minutes, before 5 μL substrate solution is added and the reaction mixture is incubated at room temperature for the given period. 10 μL acceptor beads, suspended at given dilutions in Epigenetic Buffer (Perkin Elmer AL008) from stock, are added and the suspension is incubated 60 minutes in the dark at room temperature, before 10 μL suspension (at the given dilutions in Epigenetic Buffer) of streptavidin donor beads (Perkin Elmer 6760002) in Epigenetic Buffer is added. After incubation at room temperature in the dark the plates are read. Reaction conditions are seen in Table 2b.
For orientation: Alpha assays give light when donor and acceptor beads are brought close together.

A further experiment has as its target T3, JMJD3 (KDM6B) (Homo sapiens, UniProt O15054).
T3 construct: 1043-end; purchased BPS; host or cells: Bac (baculovirus)
The experiment is described as follows: Histone lysine demethylase AlphaLISA assay, JMJD3. To be noted: substrate BK27M3. The protocol: as §2, §3, §4

The target in the next experiment is T4, UTX (KDM6A) (Homo sapiens, UniProt O15550).
T4 construct: 919-1401; host or cells: E. coli
T4 sequence (O15550 919-1401): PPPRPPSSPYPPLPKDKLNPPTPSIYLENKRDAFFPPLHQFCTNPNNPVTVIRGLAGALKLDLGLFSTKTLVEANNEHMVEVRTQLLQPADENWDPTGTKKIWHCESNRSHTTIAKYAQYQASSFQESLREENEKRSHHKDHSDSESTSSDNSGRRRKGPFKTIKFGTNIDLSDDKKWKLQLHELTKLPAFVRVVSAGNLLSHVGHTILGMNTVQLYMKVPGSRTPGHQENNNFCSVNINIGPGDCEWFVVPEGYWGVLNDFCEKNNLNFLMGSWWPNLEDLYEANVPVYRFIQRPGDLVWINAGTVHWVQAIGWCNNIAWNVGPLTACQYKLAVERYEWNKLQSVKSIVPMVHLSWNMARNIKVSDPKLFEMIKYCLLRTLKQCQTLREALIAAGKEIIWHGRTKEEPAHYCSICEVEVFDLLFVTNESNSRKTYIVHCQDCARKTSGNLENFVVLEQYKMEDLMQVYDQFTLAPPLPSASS
The experiment is described as follows: Histone lysine demethylase AlphaLISA assay, UTX. To be noted: substrate BK27M3. The method, boiled down: as §1

In another experiment the target is T5, PLU1 (KDM5B) (Homo sapiens, UniProt Q9UGL1).
T5 construct: 1-809; host or cells: E. coli
T5 sequence (Q9UGL1 1-809): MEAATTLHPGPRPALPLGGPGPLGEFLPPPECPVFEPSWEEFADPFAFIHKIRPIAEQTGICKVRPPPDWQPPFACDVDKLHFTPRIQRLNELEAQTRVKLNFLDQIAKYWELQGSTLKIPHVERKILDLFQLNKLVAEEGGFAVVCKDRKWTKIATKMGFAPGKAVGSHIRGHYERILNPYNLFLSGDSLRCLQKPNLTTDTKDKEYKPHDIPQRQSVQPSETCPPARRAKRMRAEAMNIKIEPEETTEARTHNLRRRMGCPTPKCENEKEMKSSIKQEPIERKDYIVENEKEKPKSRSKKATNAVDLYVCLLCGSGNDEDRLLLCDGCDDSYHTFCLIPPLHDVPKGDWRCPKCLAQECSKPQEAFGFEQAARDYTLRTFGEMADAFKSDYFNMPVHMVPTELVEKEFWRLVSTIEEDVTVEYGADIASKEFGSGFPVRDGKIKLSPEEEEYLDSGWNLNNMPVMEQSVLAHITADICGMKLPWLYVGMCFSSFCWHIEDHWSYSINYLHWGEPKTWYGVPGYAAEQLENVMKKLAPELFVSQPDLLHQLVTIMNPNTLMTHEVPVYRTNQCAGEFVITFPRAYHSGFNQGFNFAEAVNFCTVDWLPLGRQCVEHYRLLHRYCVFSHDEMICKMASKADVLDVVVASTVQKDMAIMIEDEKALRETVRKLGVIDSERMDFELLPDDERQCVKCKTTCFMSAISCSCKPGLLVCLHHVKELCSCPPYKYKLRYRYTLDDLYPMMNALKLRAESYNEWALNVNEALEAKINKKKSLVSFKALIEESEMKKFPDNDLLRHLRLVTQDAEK
The experiment is described as follows: Histone lysine demethylase AlphaLISA assay, PLU1. To be noted: substrate H3K4M3B. The essentials: as §1

Where only a bound is given, the exact number is not on record here.

T3 sequence (O15054 1043-1682 isoform O15054-1 limits assumed): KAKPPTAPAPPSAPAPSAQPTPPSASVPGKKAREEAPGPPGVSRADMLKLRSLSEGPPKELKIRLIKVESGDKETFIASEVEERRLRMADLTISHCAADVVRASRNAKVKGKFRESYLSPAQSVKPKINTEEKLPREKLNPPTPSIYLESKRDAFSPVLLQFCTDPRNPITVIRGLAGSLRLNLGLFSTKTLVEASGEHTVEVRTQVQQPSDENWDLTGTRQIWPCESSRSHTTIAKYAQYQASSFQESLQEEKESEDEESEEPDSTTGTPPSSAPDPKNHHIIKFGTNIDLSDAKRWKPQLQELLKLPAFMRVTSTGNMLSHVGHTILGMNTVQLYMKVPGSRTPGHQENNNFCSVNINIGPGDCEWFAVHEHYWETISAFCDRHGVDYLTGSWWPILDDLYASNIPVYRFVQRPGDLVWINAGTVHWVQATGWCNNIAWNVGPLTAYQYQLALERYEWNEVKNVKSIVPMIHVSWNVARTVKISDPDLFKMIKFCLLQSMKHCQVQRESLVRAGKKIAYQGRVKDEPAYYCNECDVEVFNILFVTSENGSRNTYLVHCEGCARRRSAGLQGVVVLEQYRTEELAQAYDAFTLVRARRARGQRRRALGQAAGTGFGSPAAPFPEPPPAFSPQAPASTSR

By IC50 is commonly meant the midpoint of a concentration-inhibition curve. With “2-({[(1R)-2-hydroxy-1-{methyl[3-(1-methyl-1H-imidazol-2-yl)propyl]carbamoyl}ethyl]amino}methyl)pyridine-4-carboxylic acid [#37]”, the half-maximal inhibitory concentration (IC50) against FBXL10 (KDM2B) is at least 1 µM; against JMJD2A (KDM4A) it was below 0.1 µM; against JMJD3 (KDM6B), at least 1 µM; at UTX (KDM6A), at least 1 µM.
Regarding `CCCCN1CCCC1CCNCc1cc(C(=O)O)ccn1` (stereo not drawn) [#34, 2-({[2-(1-butylpyrrolidin-2-yl)ethyl]amino}methyl)pyridine-4-carboxylic acid], the IC50 was below 0.1 µM on JMJD2A (KDM4A), at least 1 µM on JMJD3 (KDM6B), at least 1 µM on UTX (KDM6A) and below 0.1 µM against PLU1 (KDM5B).
Take `CCCCN(C)C(=O)CNCc1cc(C(=O)O)ccn1` [#14, 2-[({[butyl(methyl)carbamoyl]methyl}amino)methyl]pyridine-4-carboxylic acid]: the IC50 on FBXL10 (KDM2B) is below 0.1 µM; on JMJD3 (KDM6B), at least 1 µM; against UTX (KDM6A), at least 1 µM; against PLU1 (KDM5B) it was below 0.1 µM.
As for `CCN(CCN(C)C)C(=O)CNCc1cc(C(=O)O)ccn1` [#49, 2-{[({[2-(dimethylamino)ethyl](ethyl)carbamoyl}methyl)amino]methyl}pyridine-4-carboxylic acid], the IC50 is 0.1 to 1 µM against FBXL10 (KDM2B); below 0.1 µM against JMJD2A (KDM4A); at least 1 µM on JMJD3 (KDM6B); at least 1 µM against UTX (KDM6A); below 0.1 µM against PLU1 (KDM5B).
With `COc1ccccc1CN1CCC(NC(=O)CNCc2cc(C(=O)O)ccn2)CC1` [#29, 2-({[({1-[(2-methoxyphenyl)methyl]piperidin-4-yl}carbamoyl)methyl]amino}methyl)pyridine-4-carboxylic acid], the IC50 at FBXL10 (KDM2B), on JMJD2A (KDM4A) and on PLU1 (KDM5B) was below 0.1 µM each time.
`O=C(O)c1ccnc(CNCC(=O)N2CCCC2)c1` [#13, 2-({[2-oxo-2-(pyrrolidin-1-yl)ethyl]amino}methyl)pyridine-4-carboxylic acid]: the IC50 against FBXL10 (KDM2B) was below 0.1 µM; against JMJD2A (KDM4A), below 0.1 µM; at JMJD3 (KDM6B) it was at least 1 µM; against UTX (KDM6A), at least 1 µM; at PLU1 (KDM5B), below 0.1 µM.
`CC(C)=CCCC(C)CCN1CCC(NC(=O)CNCc2cc(C(=O)O)ccn2)C1` (stereo not drawn) [#35, 2-{[({[1-(3,7-dimethyloct-6-en-1-yl)pyrrolidin-3-yl]carbamoyl}methyl)amino]methyl}pyridine-4-carboxylic acid]: the IC50 was 0.1 to 1 µM on FBXL10 (KDM2B); below 0.1 µM on JMJD2A (KDM4A); 0.1 to 1 µM against JMJD3 (KDM6B); at least 1 µM against UTX (KDM6A); below 0.1 µM on PLU1 (KDM5B).
